Data taken from publication PMC9170106, “Pre-clinical evaluation of LASSBio-1491: From in vitro pharmacokinetic study to in vivo leishmanicidal activity” (PLoS ONE, 2022).
Values joined by “and” are separate entries in the source; they are usually repeats but may differ in a detail not shown here. Equal entries are not always repeated.

Experiments:
[1] = Plasma stability; format: in vitro ADME, rat
Protocol: For analysis of plasma stability, the LASSBio-1491 in a final concentration of 5 μM from stock solution of 1 mM, was added in 50 μL of rat plasma solution diluted in 250 μL with PBS (pH 7.4) and was placed in a shaker at 37 °C under vigorous stirring for 0, 30, 60, 120 and 240 minutes. After each reaction time, 500 μL of cold methanol and 500 μL of cold acetonitrile containing 5 uM of methyl 1,1’biphenyl-4-carboxylate 5 μM (internal standard) were added to the wells to stop the reaction. The solution was mixed and centrifuged at 24500 x g for 15 min (Universal centrifuge 320R Hettich®). The supernatant (1 mL) was filtrated and placed in vials to be analyzed by HPLC-PDA, Shimadzu—LC20AD, Kromasil C-18 column (4.6 mm x 250 mm, 5 μm), SPD M20A diode array detector, flow 1 mL/min, mobile phase acetonitrile: water 1:1 (v/v) for LASSBio-1491 and acetonitrile: water 60:40 (v/v) for LASSBio-1736, for 20 minutes at 254 nm wavelength.

[2] = set-up: method as in PMID 35497630; settings: cited from earlier work
[3] = Microsomal metabolism; format: in vitro ADME; settings: rat liver microsomes
Protocol: The study of the microsomal metabolism of the compounds was evaluated by placing 1 mg/ml rat liver microsome in a microcentrifuge tube, in the presence of a NADPH generator system (1 mM NADP^+, 1.5 mM MgCl2, 3.5 mM glucose-6-phosphate and 0.5 U/mL glucose-6-phosphate dehydrogenase) and phosphate buffer pH 7.4 in sufficient quantity for 250 μL. After 15 minutes of pre-incubation at 37°C in a water bath, the enzymatic reactions were started by adding 2 μL of a stock solution 1 mM from one of the prototypes (500 μL 20% DMSO 80% CH3CN), so that a final concentration of 5 μM was reached (0.2% DMSO, 0.8% acetonitrile).
Then, the samples were again incubated at 37°C under agitation for predetermined and fixed periods (0, 15, 30, 45 and 60 minutes). At the end of the incubation period 500 μL of cold methanol and 500 μL of cold acetonitrile containing 5 μM of methyl 1,1’biphenyl-4-carboxylate 5 μM (internal standard) were added to the wells to stop the reaction and the samples were homogenized and kept in an ice bath to accelerate protein precipitation. The mixture was centrifuged at 24500 x g for 15 minutes at 4°C (Universal centrifuge 320R Hettich®). Finally, the supernatant (1 mL) was filtrated and placed in vials to be analyzed by HPLC-PDA, Shimadzu—LC20AD, Kromasil C-18 column (4.6 mm x 250 mm, 5 μm), SPD M20A diode array detector, flow 1 mL/min, mobile phase acetonitrile: water 1:1 (v/v) for LASSBio-1491 and acetonitrile: water 60:40 (v/v) for LASSBio-1736, 20 minutes at 254 nm wavelength. Then, the microsomal half-life and clearance were calculated.

[4] = PAMPA-GIT permeability; settings: PAMPA-GIT conditions
From the text: (§1) The parallel artificial membrane permeability assay uses 96-well plate in a “sandwich” type system, where one plate overlaps the other (PAMPA). […] The lipid mixture that impregnates the PVDF filter has a different constitution for the permeability tests for the blood-brain barrier (Brain lipid from pig extract in dodecane) and gastro-intestinal tract (L-α soy phosphatidylcholine in dodecane). In the PAMPA BBB and TGI assays, the optical density values obtained in the reading at each selected wavelength, for each of the compounds were analyzed in comparison with the values of several controls. In the case of the BBB, these values were used to elaborate an equation and determine the permeability coefficient (Pe), using a previously elaborated spreadsheet, and, for the TGI, these values were used to determine the absorbed fraction (Fa%), both using the Excel® program.

[5] = Aqueous solubility by UV spectroscopy; format: physicochemical; settings: phosphate buffer solution, buffer solution pH 7.4, 37 °C
Protocol: The solubility assay was carried out by correlating the concentration with the absorbance obtained by ultraviolet. First, a stock solution of the compound was prepared by dissolving 1 mg in 20 mL of methanol, and then the wavelength of greatest absorption of each compound was obtained by scanning between wavelengths from 200 nm to 500 nm. From the stock solution, six dilutions were prepared (dilution factor: 2.5), and the absorbance reading was performed in quartz cuvettes (10 mm optical path) in the UV-VIS spectrophotometer (Femto 800XI) at the previously determined wavelength. With the values obtained, a calibration curve with linear regression was made, in which the linearity of the analytical method is observed, with values of correlation coefficient (p > 0.95).
The compound was dissolved in a phosphate buffer solution (pH 7.4), prepared according to the Brazilian Pharmacopoeia (Vol.1) to obtain a supersaturated solution. The supersaturated aqueous solution was kept under stirring for 4 hours at 37°C and then the sample was filtered on a 0.45 μm filter to carry out the reading at the corresponding wavelength of the compound. The solubility was then determined through the equation of the straight line obtained by the linear regression of the calibration curve of each compound [19].

[6] = set-up: method as in PMID 35497630, PMID 29160126; settings: cited from earlier work
[7] = PAMPA-BBB permeability
From the text: as §1

[8] = Microsomal metabolism; format: in vitro ADME; settings: rat liver microsomes, without NADPH regenerating system

Elimination rate constant (k) ([1]; rat plasma): 0.0004 | t1/2 ([1]; rat plasma): 28.9 h | Metabolism rate ([1]; rat plasma, 5 μM, 37 °C, up to 240 min): 7.30% | half-life at 5 μM ([1]; rat, rat plasma diluted with PBS, pH 7.4, rat plasma): 19.2 h | recovery at 5 μM ([1]; rat, rat plasma diluted with PBS, pH 7.4, read-out: Recovery rate): 59.9% | half-life at 5 μM ([3]; pH 7.4, with co-factor): 3.5 h | microsomal CLint at 5 μM ([3]; pH 7.4, with co-factor, Volume x (0,693/t1/2)): 0.825 µL/min/mg | Metabolism rate with co-factor ([3]; with NADPH regenerating system): 18.33% | Elimination rate constant (k) ([3]; with co-factor): 0.0033 | Clapp ([3]; with co-factor, scaled to liver and rat weight): 0.128 mL/min/kg | solubility in the PAMPA-GIT experimental set [4]: insoluble | solubility at 4 h [5]: 0.26 µM and 0.109 µg/mL | Papp ([7]; PAMPA): 10.6 ×10⁻⁶ cm/s | Classification ([7]; PAMPA-BBB): CNS+ | Metabolism rate non co-factor [8]: 5.81%
SMILES: O=C(N/N=C/c1ccc(C(F)(F)F)cc1)NNC(=O)c1ccc(Cl)cc1Cl [LASSBio-1736]
signals of hepatic or renal toxicity [2]: no preliminary signals of hepatic or renal toxicity | stability in rat plasma [6]: great stability in rat plasma
